Data: patent publication US11484576B2, “Methods of promoting corticospinal neuronal outgrowth in neuronal lesions using a pro-regenerative human osteopontin fragment” (THE CHILDREN'S MEDICAL CENTER CORPORATION, priority 2017, dated 2022)

Key:
[1] = test system: CST axons; assay: CST regrowth (axon regeneration and midline-crossing sprouting) after T10 lateral hemisection; format: in vivo, mouse; conditions: AAV-expressed; for regrowth of injured CST axons at the lesion site: horizontal sections covering the lesion; for sprouting of intact CST axons across midline into the denervated side: spinal levels below the injury site
Source text: Since the mice treated with AAV-OPN/IGF1 were co-injected with AAV-channel rhodopsin (ChR2)-mCherry (AAV-ChR2-mCherry) or AAV-ChR2-YFP to the ipsi-lateral or contra-lateral cortex, respectively, at the termination of behavioral assessment, a post hoc examination of the T10 lateral hemisection histology was first performed. Mice with incomplete- or over-hemisection could be readily identified by analyzing labeled CST axons at the lumbar spinal cord and excluded from further analysis (FIG. 2A). CST regrowth was examined by preparing horizontal spinal cord sections covering the lesion sites to assess axon regeneration across the lesion site, and transverse sections of lower spinal cord segments to assess midline-crossing of CST axons from intact side. […] Thus, these sprouting axons play an important role in the observed functional recovery. Therefore, combined treatment of AAV-OPN and AAV-IGF1 not only promotes CST regrowth but also CST-dependent behavioral performance.
Axon Counting and Quantification. To quantify the number of sprouting axons, a horizontal line was firstly drawn through the central canal and across the lateral rim of the gray matter. Three vertical lines (Mid, Z1, and Z2) were drawn to divide the horizontal line into three equal parts, starting from the central canal to the lateral rim. While Mid denotes midline crossing fibers, Z1 and Z2 are for sprouting fibers at different distance from the midline. Only fibers crossing the three lines were counted on each section. The results were presented after normalization with the number of counted CST fibers at the medulla level.
For quantifying total labeled CST axon, AAV-ChR2-YFP (FIG. 4D) or AAV-ChR2-mCherry (FIGS. 4C, 7E and 8E) labeled CST fibers were counted at the level of medulla oblongata 1 mm proximal to the pyramidal decussation. Axons were estimated by counting 4 rectangular areas (about 10000 μm^2/area) per section on two adjacent sections.
To quantify the regenerating axons (FIG. 4D), the number of intersections of chR2-YFP-labeled fibers with a dorsal-ventral line positioned at a defined distance caudal from the lesion center was counted under a 25X objective. Fibers were counted on 3 sections with the main dorsal CST and 1-3 lateral sections with collaterals in the gray matter. The number of counted fibers was normalized by the number of labeled CST axons in the medulla and divided by the number of evaluated sections.

[2] = test system: p-S6; assay: phospho-S6 immunostaining (mTOR activation) in corticospinal neurons after cortical injection of recombinant proteins, T10 lateral hemisection; format: in vivo, mouse; conditions: intact and axotomized CSNs; recombinant proteins injected into cortex
Source text: (§1) However, it is unknown whether IGF1 triggers similar signaling activation in adult CSNs and, if so, whether it could be altered by OPN treatment. Thus CSNs were labeled by spinal injection of HiRet-GFP, performed T10 lateral hemisection, and then bilaterally injected recombinant IGF, OPN or OPN/IGF1 proteins were bilaterally injected into the cortex (FIG. 5A). In 3 days, the cortical sections from both injured and intact sides of adult mice were immunostained for three factors. Anti-IGFR, anti-phospho-IGFRβ, an indicator for the activation of the IGF-1 mediated signaling pathways (Hernandez-Sanchez et al., 1995; Siddle, 2012), and anti-phospho-S6 (p-S6), an established marker of mTOR activation, one of the downstream target of IGF1 mediated signaling pathways (Liu et al., 2010; Pollak, 2008).
(§2) Virus and Protein Injection. […]
(§3) Immunohistochemistry and Imaging. […] To quantify and compare fluorescence intensity of IGFR, pIGFRβ and pS6 in GFP+ CSNs (FIGS. 2C-2E), CST axons in the dorsal funiculus (FIG. 3G) and CD68 staining (FIG. 10F) and corticofugal projections at multiple subcortical areas (FIG. 7B), and axon density of the intact side in the spinal cord (FIGS. 8E and 8F), all images used for analysis under multiple conditions were taken using the same optical parameters and avoided for saturation. […]

[3] = test system: p-IGFRβ; assay: phospho-IGFRβ immunostaining in corticospinal neurons after cortical injection of recombinant proteins, T10 lateral hemisection; format: in vivo, mouse; conditions: intact or axotomized mature CSNs; recombinant protein alone
Source text: as §1, §2, §3

[4] = test system: mice with T10 lateral hemisection; assay: Irregular ladder walking after spinal cord T10 lateral hemisection; format: in vivo, mouse; conditions: for error rate, irregular walking task, denervated hindlimb: 12 weeks after injury, AAV injected into sensorimotor cortex 1 day after injury; for performance in irregular ladder, overground, or treadmill walking: injured mice with AAV-OPN/IGF1 or AAV-PLAP, 14 weeks post injury, i.p., quipazine 0.2 mg/kg, 8-OH-DPAT 0.1 mg/kg, SKF 0.1 mg/kg
Protocol: (§4) Injury Models. […] Briefly, a midline incision was made over the thoracic vertebrae, followed by a T10 laminectomy. The unilateral hemisection was then performed carefully using both scalpel and micro-scissors, avoiding, to the greatest extent, the damage of the spinal cord dura. The muscle layers were then sutured and the skin was secured with wound clips. All mice received post hoc histological analysis and those with spared CST axons (incomplete lateral hemisection) or with significant less CST axons on the contra-lesional side (over lateral hemisection) at the lumbar spinal cord (L3), exemplified in FIG. 9A, were excluded for behavioral analysis.
Virus and Protein Injection.
Irregular Ladder Walking. […] Briefly, the ladder was elevated 30 cm above the ground. […] To prevent animals from learning the pattern, the irregular pattern was changed from trial to trial. All trials were video recorded (Hotshot e64, 100 fps) and paw placement was analyzed twice by blinded observers. Steps with precise placement of the center of the palm on the rung (for both forelimbs and hindlimbs) and digits closed (for forelimbs) were defined as correct steps (hit). All other steps were recorded as errors, which included two types: 1) Miss: when crossing the ladder, the forelimb/hindlimb either completely miss the rung or contact the rung with the wrist/heel instead of the paw; 2) Slip: when crossing the ladder, the mice use a few digits instead of the paw to place on the rungs, causing the subsequent slip on the rungs. The results were expressed as both percentage of total errors and percentage of different placement categories (hit, miss and slip).
(§5) Pharmacological Treatment. […] All behavioral tests were then accomplished between 1-3 hours post administration.

[5] = test system: optic nerve axons; assay: Optic nerve axon regeneration after optic nerve crush; format: in vivo, mouse
Protocol: The effects of various forms of active OPN were assessed for their capacity to promote optic nerve axon regeneration in an induced injury model. To express the various forms of active OPN AAVs expressing all forms of mouse OPN were injected intravitreally in anesthetized mice. To induce the injury model the optic nerves were crushed using a pair of forceps two weeks after intravitreal injection. Recombinant proteins (CNTF, IGF1, BDNF) were injected at 0 and 7 days after the crush (1 ul each, 1 ug/ul). Fluorescent cholera toxin beta subunit (CTB-555) was injected intravitreally 12 days after crush to trace the axons before the tissues were fixed 14 days after crush, sectioned and imaged.

[6] = test system: injured mice; assay: Adverse effects of systemic potassium channel blockers in injured mice; format: in vivo; conditions: doses above 1 mg/kg (3 mg/kg tested), injured mice
Protocol: Chemicals and Antibodies. For systematic administration (i.p.), Quipazine [Sigma (Q1004), 0.2 mg/kg), SKF-82197 [Tocris (1447) 0.1 mg/kg], and 8-OH-DPAT [Tocris (0529), 0.1 mg/kg), 4AP [Sigma (275875), 1 mg/kg, 3 mg/kg), 4AP-MeOH [Santa Cruz (sc-267247), (1 mg/kg)] were dissolved in saline. Tamoxifen (Sigma, 10540-29-1) was dissolved in oil. For diphtheria toxin mediated cell ablation, we purchased the diptheria toxin from Sigma (D0564). For immunostaining, the primary antibody used were chicken anti-GFP [Abcam (Cat: ab13970)], rabbit anti-RFP [Abcam (Cat: ab34771)], rabbit anti-PKCγ [Santa Cruz (sc211)], rabbit anti-GFAP [DAKO (Z0334)]; rabbit anti-5-HT [Immunostar (20080)], rabbit-anti-IGFR [Santa Cruz (sc-712)] rabbit-anti-pIGFR[3 [Cell signaling technology (3024)], rabbit-anti-pS6 [Cell signaling technology (4857)], rat anti-CD68 [Bio-Rad (MCA 1957)], and Guinea pig-anti-Vglut1 [Synaptic Systems (135304)].
Pharmacological Treatment. […] A pilot experiment was performed and determined that 4AP (1 mg/kg, 3 mg/kg) and 4AP-MeOH (1 mg/kg) achieved their maximal effects within 1-3 hours post systematic administration (i.p.). […]

[7] = test system: mice with T10 lateral hemisection; assay: Ground walking and treadmill walking after T10 lateral hemisection; format: in vivo, mouse; conditions: i.p.
Protocol: as §4, §5

With “IGF1: recombinant human insulin-like growth factor 1 (Peprotech)” the “regrowth of injured CST axons at the lesion site” value [1] was “significant die-back from the lesion site”, the “sprouting of intact CST axons across midline into the denervated side” value [1] was “little sprouting across midline” and the “effect on p-S6 levels” value [2] was “not IGF1 or OPN alone”. For the same molecule, the “effect on p-IGFRβ” value [3] was “no overt effect”, the “error rate, irregular walking task, denervated hindlimb” value [4] was roughly 70% and the “dose dependence of the regenerative effect” value ([5]; combined with OPN) was “dosage dependent”.

With “OPN: recombinant osteopontin (OPN) protein (Peprotech), injected into cortex or intravitreally” the “regrowth of injured CST axons at the lesion site” value [1] was “significant die-back from the lesion site”, the “sprouting of intact CST axons across midline into the denervated side” value [1] was “little sprouting across midline” and the “effect on p-S6 levels” value [2] was “not IGF1 or OPN alone”. For the same molecule, the “effect on p-IGFRβ” value [3] was “no overt effect”, the “error rate, irregular walking task, denervated hindlimb” value [4] was roughly 70% and the “effect of OPN added to CNTF on optic nerve axon regeneration” value ([5]; OPN with CNTF) was “no added effect”. For the same molecule, the “effect of recombinant OPN protein on the optic nerve” value ([5]; intravitreal application, combined with IGF1 (FIG. 20)) was “pro-regenerative effects”.

In the case of Nc1ccncc1 [4-AP, 4-aminopyridine], the “adverse effect at higher doses” value [6] is reported as “seizures”, the “recovery of treadmill walking performance compared to the control” value [7] is reported as “neither 4-AP nor 4-AP-MeOH had significant effects” and the “error rates, irregular ladder walking task” value ([4]; 1 mg/kg i.p., mice with OPN/IGF1 treatment) is reported as “showed a trend of reducing the error rates in mice with OPN/IGF1 treatment, but failed to reach statistical significance”.

For Oc1cc2c(c(Cl)c1O)CCNCC2c1ccccc1 (stereo not drawn) [SKF], the “performance in irregular ladder, overground, or treadmill walking” value (shortened to “performance … or treadmill walking”) [4] was “failed to improve” and the “hindlimb performance in irregular ladder walking on the denervated side” value ([4]; injured mice, i.p. 0.1 mg/kg) was “deteriorated the hindlimb performance”.

In the case of CCCN(CCC)C1CCc2cccc(O)c2C1 (stereo not drawn) [8-OH-DPAT], the “performance … or treadmill walking” value [4] is reported as “failed to improve”.

With c1ccc2nc(N3CCNCC3)ccc2c1 [quipazine] the “performance … or treadmill walking” value [4] was “failed to improve”.

B1: recombinant CNTF: recombinant CNTF protein injected after optic nerve crush (protein, UniProt P26441 1-200, looked up)
Ciliary neurotrophic factor: MAFTEHSPLTPHRRDLCSRSIWLARKIRSDLTALTESYVKHQGLNKNINLDSADGMPVASTDQWSELTEAERLQENLQAYRTFHVLLARLLEDQQVHFTPTEGDFHQAIHTLLLQVAAFAYQIEELMILLEYKIPRNEADGMPINVGDGGLFEKKLWGLKVLQELSQWTVRSIHDLRFISSHQTGIPARGSHYIANNKKM
B1 was tested, and the optic nerve regeneration ([5]; intravitreal AAV 2 weeks before crush, recombinant proteins at 0 and 7 days after crush (1 ul, 1 ug/ul), 14 days after crush) was “no effect”.
